Measured values as given in US12398110B2, “Second generation inhibitors of mitochondrial permeability transition pore with improved plasma stability” (Oregon Health & Science University, priority 2019, dated 2025).

Legend:
[1] = tested on: col6a1 zebrafish morphants; test: Touch-evoked escape response in col6a1 zebrafish morphants; format: in vivo; settings: 48 hpf, 27 hours of treatment, 0.1, 1 and 10 μm
Method: Zebrafish embryos were injected with col6a1 morpholino at the 1-cell stage, dechorionated at 20 hpf and treated at 21 hpf with 0.1, 1 or 10 μm of either TR001 or 63. DMSO-treated embryos injected with a scrambled morpholino were used as a control. […] It should be noted that in these protocols, embryos were exposed to drugs for a longer period of time than in the spontaneous coiling experiments. This difference may help to explain why TR001 was as effective at 0.1 μm as it was at 1 and 10 μm.
(§1) Morpholino antisense injection and treatment. Knock-down of col6a1 gene expression was obtained with a previously published morpholino ^[25] with sequence GAGAGCGGAAGACGAACCTTCATTC (SEQ ID NO: 2; GeneTools, Inc.). A control morpholino with no sequence homology in the zebrafish genome was used in parallel (CCTCTTACCTCAGTTACAATTTATA; SEQ ID NO: 3). Zebrafish eggs from wild-type matings were injected at the 1-2 cell stage with approximately 10 nL of 0.1 mm morpholino solution (corresponding to 4 ng of morpholino) using a WPI pneumatic PicoPump PV820 injector (World Precision Instruments, Inc.). Zebrafish embryos were dechorionated at 20 hours post fertilization (hpf) and treated at 21 hpf with increasing doses (0.1, 1 and 10 μm) of both TR001 and 63 compounds dissolved in fish water with 1% DMSO (vehicle).
Motor activity. The number of spontaneous coiling events performed in 15 seconds by single zebrafish embryos was recorded at 24 hpf by light microscopy. Touch-evoked escape responses were recorded at 48 hpf by observing the ability of zebrafish embryos to escape after a tail-touch with a little tip. Embryos were subdivided in 4 groups according to the observed phenotype: paralyzed embryos, score 0; underdeveloped embryos showing only coiling events, score 1; embryos showing lower motility, score 2; normal embryos, score 3.

[2] = tested on: inner mitochondrial membrane potential; test: Rhodamine 123 (Rh123) uptake, mitochondrial membrane potential of isolated mouse liver mitochondria; format: biochemical
From the text: We next evaluated the mitochondrial toxicity of the new triazole analogs by testing their ability to interfere with accumulation of the membrane-permeant cationic fluorescent dye rhodamine 123 (Rh123). The mitochondrial uptake of positively charged Rh123 is driven by the inside negative IMM potential, which is built by the respiratory chain or maintained by ATP hydrolysis if certain conditions are met. […] It should be noted, however, that toxicity for these compounds only occurs at ˜10-1000-fold higher concentrations compared to mtPTP inhibition, providing a good therapeutic window.
Assessment of mitochondrial membrane potential. Mitochondrial membrane potential—to evaluate toxicity—of isolated mouse liver mitochondria was assessed based on fluorescence quenching of the cationic fluorescent dye Rh123 upon its accumulation into mitochondrial matrix due to inside negative membrane potential. Compounds that interfere with the build-up or maintenance of IMM potential would shift Rh123 fluorescence to higher values compared to DMSO treated samples. Uncoupler FCCP was used to account for nonspecific fluorescence. First, 0.1 mL of SAB was dispensed to a 96-well black assay plate. A set of wells also contained 0.8 μm FCCP (to prevent Rh123 uptake). The test wells contained a range of concentrations (in 1:2 serial dilutions) of the compounds of interest or 2% DMSO. Then, 0.1 mL of 0.5 mg/mL mitochondria in SAB devoid of respiratory substrates but supplemented with 0.8 μm Rh123 were added to all wells of the assay plate. Fluorescence intensity (ex/em 485/535 nm) was read on a Tecan Infinite F200 plate reader for 7 min and value at 5 min was considered for analysis. EC50s±SE were determined with OriginPro software by applying Hill1 function fitting algorithm on average concentration response data of n=3 independent preparations.

[3] = tested on: col6a1 zebrafish morphants; test: OCR measurement on entire col6a1 morphant zebrafish embryos; format: in vivo; settings: 48 hpf, 10 μm
From the text: To test the effects of both TR001 and 63 on the respiration of col6a1 morphant embryos, we measured the OCR on entire embryos at 48 hpf. […] Moreover, TR001 at a concentration of 10 μm was able to fully restore the maximal respiratory capacity (FIG. 6D, left panel, open diamonds, p<0.001) of col6a1 morphants.
as §1, with “Zebrafish embryos were dechorionated at 20 hours post fertilization (hpf) and treated at 21 hpf with increasing doses (0.1, 1 and 10 μm) of both TR001 and 63 compounds dissolved in fish water with 1% DMSO (vehicle).” left out
OCR measurement. […] First, basal respiration was measured. Second, respiration due to ATP synthase was measured after addition of 10 μm oligomycin (Merck Millipore-495455). Third, maximal respiration capacity was measured by adding 2 μm of the uncoupler carbonyl cyanide-4-(trifluoromethoxy)phenylhydrazone (FCCP, Sigma-Aldrich, C2920). […]

## Cc1ccc(Cl)cc1NC(=O)c1cn(-c2ccc(F)c(O)c2)nn1 [TR001, N-(5-chloro-2-methylphenyl)-1-(4-fluoro-3-hydroxyphenyl)-1H-1,2,3-triazole-4-carboxamide]
[1]
  touch-evoked escape response (motility): improved
[2]; Rh123 uptake assay
  interference with buildup of IMM potential (in words): did not interfere with IMM potential
[2]; interference with Rh123 uptake to mitochondria, average ± SEM, n = 3, read-out: Rh123 uptake EC50
  EC50: > 40 µM
[3]
  maximal respiratory capacity (OCR) of col6a1 morphants: fully restore
